Key:
HCV polymerase = target: T1, HCV polymerase (Hepatitis C virus genotype 1b, UniProt Q9WMX2); assay: Polymerase assay of Biological Example 1 (IC50 values of Table 3); type: biochemical; settings: IC50 values of Table 3, polymerase assay of Biological Example 1; read-out: NS5B-enzyme3
T1 construct: (His)6 (C); made in house; host or cells: XL-1 cells (E. coli, by own knowledge)

[1] = tested on: HCV replicon I389luc-ubi-neo/NS3-3′/ET in ET (Huh-lucubineo-ET) cells; assay: Replicon assay (Biological Example 2), luciferase readout; type: cell-based; settings: Hepatitis C virus
How it was run: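 EC50 values come from Hill fits of % inhibition of replicon-driven firefly luciferase, relative to no-compound wells. Compounds were serially diluted (10 points, 3-fold, 0.1 nM–50 μM final, 0.5% DMSO) onto ET replicon cells and read after 48 h.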

[2] = ET cells, luciferase activity 48 hours after compound

| SMILES | IC50 (HCV polymerase) [nM] | IC50 ([1]; between 100 nM and 5.0 uM) [nM] | IC50 [1, 2] [nM] |
| --- | --- | --- | --- |
| O=C(O)c1sc(-c2ccccc2)cc1N1C(=O)CN(S(=O)(=O)c2ccc(N(CCO)CCO)nc2)CC1C1CCCCC1 (stereo not drawn) [Compound 83, 3-(4-{6-[Bis-(2-hydroxy-ethyl)-amino]-pyridine-3-sulfonyl}-2-cyclohexyl-6-oxo-piperazin-1-yl)-5-phenyl-thiophene-2-carboxylic acid] | 3 | 100 to 5000 | – |
| O=C(O)c1sc(-c2ccccc2)cc1N1C(=O)CN(S(=O)(=O)c2ccc(N3CCCCC3)nc2)CC1C1CCCCC1 (stereo not drawn) [Compound 84, 3-[2-Cyclohexyl-6-oxo-4-(3,4,5,6-tetrahydro-2H-[1,2′]bipyridinyl-5′-sulfonyl)-piperazin-1-yl]-5-phenyl-thiophene-2-carboxylic acid] | 4 | – | ≤ 100 |
| CC(C)Nc1ccc(S(=O)(=O)N2CC(=O)N(c3cc(-c4ccccc4)sc3C(=O)O)C(C3CCCCC3)C2)cn1 (stereo not drawn) [Compound 85, 3-[2-Cyclohexyl-4-(6-isopropylamino-pyridine-3-sulfonyl)-6-oxo-piperazin-1-yl]-5-phenyl-thiophene-2-carboxylic acid] | 2 | – | ≤ 100 |
| O=C(O)c1sc(-c2ccccc2)cc1N1C(=O)CN(S(=O)(=O)c2ccc(NCCO)nc2)CC1C1CCCCC1 (stereo not drawn) [Compound 86, 3-{2-Cyclohexyl-4-[6-(2-hydroxy-ethylamino)-pyridine-3-sulfonyl]-6-oxo-piperazin-1-yl}-5-phenyl-thiophene-2-carboxylic acid] | 6 | – | ≤ 100 |
| CC1CN(c2ccc(S(=O)(=O)N3CC(=O)N(c4cc(-c5ccccc5)sc4C(=O)O)C(C4CCCCC4)C3)cn2)CC(C)O1 (stereo not drawn) [Compound 87, 3-{2-Cyclohexyl-4-[6-(2,6-dimethyl-morpholin-4-yl)-pyridine-3-sulfonyl]-6-oxopiperazin-1-yl}-5-phenyl-thiophene-2-carboxylic acid] | 5 | – | ≤ 100 |
| O=C(O)c1sc(-c2ccccc2)cc1N1C(=O)CN(S(=O)(=O)c2ccc(N3CCNCC3)nc2)CC1C1CCCCC1 (stereo not drawn) [Compound 88, 3-[2-Cyclohexyl-6-oxo-4-(6-piperazin-1-yl-pyridine-3-sulfonyl)-piperazin-1-yl]-5-phenyl-thiophene-2-carboxylic acid] | 2.13 | – | ≤ 100 |
| CC(=O)N1CCN(c2ccc(S(=O)(=O)N3CC(=O)N(c4cc(-c5ccccc5)sc4C(=O)O)C(C4CCCCC4)C3)cn2)CC1 (stereo not drawn) [Compound 89, 3-{4-[6-(4-Acetyl-piperazin-1-yl)-pyridine-3-sulfonyl]-2-cyclohexyl-6-oxo-piperazin-1-yl}-5-phenyl-thiophene-2-carboxylic acid] | 3 | – | ≤ 100 |
| O=C(O)c1sc(-c2ccccc2)cc1N1C(=O)CN(S(=O)(=O)c2ccc(NC3CCOCC3)nc2)CC1C1CCCCC1 (stereo not drawn) [Compound 90, 3-{2-Cyclohexyl-6-oxo-4-[6-(tetrahydro-pyran-4-ylamino)-pyridine-3-sulfonyl]-piperazin-1-yl}-5-phenyl-thiophene-2-carboxylic acid] | 4 | – | ≤ 100 |
| CN(c1ccc(S(=O)(=O)N2CC(=O)N(c3cc(-c4ccccc4)sc3C(=O)O)C(C3CCCCC3)C2)cn1)C1CCCCC1 (stereo not drawn) [Compound 91, 3-{2-Cyclohexyl-4-[6-(cyclohexyl-methyl-amino)-pyridine-3-sulfonyl]-6-oxo-piperazin-1-yl}-5-phenyl-thiophene-2-carboxylic acid] | 12 | – | ≤ 100 |
| CC1CCC(C)N1c1ccc(S(=O)(=O)N2CC(=O)N(c3cc(-c4ccccc4)sc3C(=O)O)C(C3CCCCC3)C2)cn1 (stereo not drawn) [Compound 92, 3-{2-Cyclohexyl-4-[6-(2,5-dimethyl-pyrrolidin-1-yl)-pyridine-3-sulfonyl]-6-oxo-piperazin-1-yl}-5-phenyl-thiophene-2-carboxylic acid] | 4 | – | ≤ 100 |
| O=C(O)c1sc(-c2ccccc2)cc1N1C(=O)CN(S(=O)(=O)c2ccc(N3CCC(O)CC3)nc2)CC1C1CCCCC1 (stereo not drawn) [Compound 93, 3-[2-Cyclohexyl-4-(4-hydroxy-3,4,5,6-tetrahydro-2H-[1,2′]bipyridinyl-5′-sulfonyl)-6-oxo-piperazin-1-yl]-5-phenyl-thiophene-2-carboxylic acid] | 4 | – | ≤ 100 |
| COC1CCN(c2ccc(S(=O)(=O)N3CC(=O)N(c4cc(-c5ccccc5)sc4C(=O)O)C(C4CCCCC4)C3)cn2)CC1 (stereo not drawn) [Compound 94, 3-[2-Cyclohexyl-4-(4-methoxy-3,4,5,6-tetrahydro-2H-[1,2′]bipyridinyl-5′-sulfonyl)-6-oxo-piperazin-1-yl]-5-phenyl-thiophene-2-carboxylic acid] | 2 | – | ≤ 100 |
| O=C(O)c1sc(-c2ccccc2)cc1N1C(=O)CN(S(=O)(=O)c2ccc(N3CCC(F)(F)CC3)nc2)CC1C1CCCCC1 (stereo not drawn) [Compound 95, 3-[2-Cyclohexyl-4-(4,4-difluoro-3,4,5,6-tetrahydro-2H-[1,2′]bipyridinyl-5′-sulfonyl)-6-oxo-piperazin-1-yl]-5-phenyl-thiophene-2-carboxylic acid] | 5 | – | ≤ 100 |
| N#Cc1cccc(S(=O)(=O)N2CC(=O)N(c3cc(-c4ccccc4)sc3C(=O)O)[C@H](C3CCCCC3)C2)c1 [Compound 97, 3-[(R)-4-(3-Cyano-benzenesulfonyl)-2-cyclohexyl-6-oxo-piperazin-1-yl]-5-phenyl-thiophene-2-carboxylic acid] | 27 | 100 to 5000 | – |
| CNC(=O)c1ccc(S(=O)(=O)N2CC(=O)N(c3cc(-c4ccccc4)sc3C(=O)O)C(C3CCCCC3)C2)cc1 (stereo not drawn) [Compound 98, 3-[2-Cyclohexyl-4-(4-methylcarbamoyl-benzenesulfonyl)-6-oxo-piperazin-1-yl]-5-phenyl-thiophene-2-carboxylic acid] | 3 | 100 to 5000 | – |
| CN1CCOc2cc(S(=O)(=O)N3CC(=O)N(c4cc(-c5ccccc5)sc4C(=O)O)C(C4CCCCC4)C3)cnc21 (stereo not drawn) [Compound 99, 3-[2-Cyclohexyl-4-(4-methyl-3,4-dihydro-2H-pyrido[3,2-b][1,4]oxazine-7-sulfonyl)-6-oxo-piperazin-1-yl]-5-phenyl-thiophene-2-carboxylic acid] | 2 | – | ≤ 100 |
| CC(C)c1ccc(S(=O)(=O)N2CC(=O)N(c3cc(-c4ccccc4)sc3C(=O)O)C(C3CCCCC3)C2)cc1 (stereo not drawn) [Compound 100, 3-[2-Cyclohexyl-4-(4-isopropyl-benzenesulfonyl)-6-oxo-piperazin-1-yl]-5-phenyl-thiophene-2-carboxylic acid] | 4 | 100 to 5000 | – |
| O=C(O)c1sc(-c2ccccc2)cc1N1C(=O)CN(S(=O)(=O)c2ccc(-n3cccn3)cc2)CC1C1CCCCC1 (stereo not drawn) [Compound 101, 3-[2-Cyclohexyl-6-oxo-4-(4-pyrazol-1-yl-benzenesulfonyl)-piperazin-1-yl]-5-phenyl-thiophene-2-carboxylic acid] | 11 | 100 to 5000 | – |
| COc1ccc(S(=O)(=O)N2CC(=O)N(c3cc(-c4ccccc4)sc3C(=O)O)C(C3CCCCC3)C2)cc1OC (stereo not drawn) [Compound 102, 3-[2-Cyclohexyl-4-(3,4-dimethoxy-benzenesulfonyl)-6-oxo-piperazin-1-yl]-5-phenyl-thiophene-2-carboxylic acid] | 4.5 | 100 to 5000 | – |
| COc1ccc(S(=O)(=O)N2CC(=O)N(c3cc(-c4ccccc4)sc3C(=O)O)C(C3CCCCC3)C2)cc1 (stereo not drawn) [Compound 103, 3-[2-Cyclohexyl-4-(4-methoxy-benzenesulfonyl)-6-oxo-piperazin-1-yl]-5-phenyl-thiophene-2-carboxylic acid] | 2 | 100 to 5000 | – |
| O=C(O)c1sc(-c2ccccc2)cc1N1C(=O)CN(S(=O)(=O)c2cccc(F)c2)CC1C1CCCCC1 (stereo not drawn) [Compound 104, 3-[2-Cyclohexyl-4-(3-fluoro-benzenesulfonyl)-6-oxo-piperazin-1-yl]-5-phenyl-thiophene-2-carboxylic acid] | 21 | 100 to 5000 | – |
| CC(C)(C)c1ccc(S(=O)(=O)N2CC(=O)N(c3cc(-c4ccccc4)sc3C(=O)O)C(C3CCCCC3)C2)cc1 (stereo not drawn) [Compound 105, 3-[4-(4-tert-Butyl-benzenesulfonyl)-2-cyclohexyl-6-oxo-piperazin-1-yl]-5-phenyl-thiophene-2-carboxylic acid] | 2 | 100 to 5000 | – |
| O=C(O)c1sc(-c2ccccc2)cc1N1C(=O)CN(S(=O)(=O)c2ccc(OC(F)F)cc2)CC1C1CCCCC1 (stereo not drawn) [Compound 106, 3-[2-Cyclohexyl-4-(4-difluoromethoxy-benzenesulfonyl)-6-oxo-piperazin-1-yl]-5-phenyl-thiophene-2-carboxylic acid] | 14 | 100 to 5000 | – |
| COc1cccc(S(=O)(=O)N2CC(=O)N(c3cc(-c4ccccc4)sc3C(=O)O)[C@H](C3CCCCC3)C2)c1 [Compound 107, 3-[(R)-2-Cyclohexyl-4-(3-methoxy-benzenesulfonyl)-6-oxo-piperazin-1-yl]-5-phenyl-thiophene-2-carboxylic acid] | < 1 | 100 to 5000 | – |
| O=C(O)c1sc(-c2ccccc2)cc1N1C(=O)CN(S(=O)(=O)c2cccnc2)CC1C1CCCCC1 (stereo not drawn) [Compound 108, 3-[2-Cyclohexyl-6-oxo-4-(pyridine-3-sulfonyl)-piperazin-1-yl]-5-phenyl-thiophene-2-carboxylic acid] | 37 | 100 to 5000 | – |
| O=C(O)c1sc(-c2ccccc2)cc1N1C(=O)CN(S(=O)(=O)c2ccc(F)cc2)CC1C1CCCCC1 (stereo not drawn) [Compound 109, 3-[2-Cyclohexyl-4-(4-fluoro-benzenesulfonyl)-6-oxo-piperazin-1-yl]-5-phenyl-thiophene-2-carboxylic acid] | 30 | 100 to 5000 | – |
| O=C(O)c1sc(-c2ccccc2)cc1N1C(=O)CN(S(=O)(=O)c2cccc3ccccc23)CC1C1CCCCC1 (stereo not drawn) [Compound 110, 3-[2-Cyclohexyl-4-(naphthalene-1-sulfonyl)-6-oxo-piperazin-1-yl]-5-phenyl-thiophene-2-carboxylic acid] | 183 | – | ≥ 5000 |
